Here are results for six compounds from patent US4804663A, “3-piperidinyl-substituted 1,2-benzisoxazoles and 1,2-benzisothiazoles” (Janssen Pharmaceutica N.V., priority 1986, dated 1989).

Where two headings read alike, the source gives them in different places.

In test [1] the test system is apomorphine-induced agitation and stereotypic chewing. The experiment in a line: combined test in rats: apomorphine (APO). It counts as in vivo, rat (adult male Wistar rats). The following applies: Rattus norvegicus, sc, 0.5 h, read-out: ED50 (APO)--rat. The protocol:
(§1) The activity of the subject compounds as […] is evidenced by the experimental data obtained in at least one of two different test procedures, viz., the combined apomorphine-, tryptamine- and norepinephrine tests in rats and the apomorphine test in dogs.
(§2) The combined apomorphine (APO)-, tryptamine (TRY)- and norepinephrine (NOR) test in rats.
(§3) The experimental animals used in this test were adult male Wistar rats (weight 240±10 g). After an overnight fast, the animals were treated subcutaneously (1 ml/100 g) with an aqueous solution of the compound under investigation (time=zero) and put in isolated observation cages. Thirty minutes thereafter (time=30 minutes) 1.25 mg/kg of apomorphine hydrochloride (APO) was injected intravenously and the rats were observed over a 1 hour period for the presence or absence of the following apomorphine-induced phenomena; agitation and stereotypic chewing. At the end of this 1 hour period (time=90 minutes) the same animals were injected intravenously with 40 mg/kg of tryptamine (TRY) and the presence of the typical tryptamine-induced bilateral tonic seizures was noted. Two hours after pretreatment (time=120 minutes) finally, the same animals were challenged with 1.25 mg/kg intravenously of norephinephrine (NOR) and possible mortality was looked for up to 60 minutes later.
(§4) The table 1 gives the ED50 -value of a number of the compounds under consideration. As used herein, the ED50 -value represents the dose which protects 50% of the animals from apomorphine-, tryptamine- or norepinephrine-induced phenomena.

Test [2] relates to tryptamine-induced bilateral tonic seizures. The experiment in a line: combined test in rats: tryptamine (TRY). It is filed as in vivo, rat (adult male Wistar rats). The following applies: Rattus norvegicus, sc, 1.5 h, read-out: ED50 (TRY)--rat. The protocol: as §1, §2, §3, §4
The test system of test [3] is norepinephrine-induced mortality. Briefly: combined test in rats: norepinephrine (NOR). It is filed as in vivo, rat (adult male Wistar rats). The conditions noted are these: Rattus norvegicus, sc, 2 h; norepinephrine 1.25 mg/kg i.v. at 120 minutes; dose protecting 50% of animals. The procedure:
as §1, §2, §3, §4

Test [4] relates to apomorphine-induced emesis. The experiment in a line: apomorphine test in dogs (APO-dog). It is filed as in vivo, beagle dog. The conditions noted are these: Canis lupus familiaris, sc, read-out: ED50 (APO)--dog.
Text: as §1
The apomorphine test in dogs (APO-dog).
The method used is described by P. A. J. Janssen and C. J. E. Niemegeers in Arzneim.-Forsch. (Drug Res.), 9, 765-767 (1959). […]
The table 1 gives the ED50 -values of a number of the compounds under consideration. As used herein, the ED50 value represents the dose which protects 50% of the animals from emesis.

The mark [5] stands for this setting: s.c., apomorphine 1.25 mg/kg i.v. 30 minutes after treatment, dose protecting 50% of animals.
Setting [6] is: s.c., tryptamine 40 mg/kg i.v. at 90 minutes, dose protecting 50% of animals.
Setting [7] is: duration 1 h, apomorphine 0.31 mg/kg s.c., dose protecting 50% from emesis.
Where [8] appears, read: duration 4 h, apomorphine 0.31 mg/kg s.c., dose protecting 50% from emesis.

On to `Cc1nc2n(c(=O)c1CCN1CCC(c3noc4cc(F)ccc34)CC1)CCS2` [Compound 14, 6-[2-[4-(6-fluoro-1,2-benzisoxazol-3-yl)-1-piperidinyl]ethyl]-2,3-dihydro-7-methyl-5H-thiazolo[3,2-a]pyrimidin-5-one], for which the ED50 in test [1] (setting [5]) turned out to be 0.02 mg/kg; in test [2] (setting [6]), 0.005 mg/kg; in test [3], 0.31 mg/kg; in test [4] (setting [7]) it was 0.004 mg/kg; in test [4] (setting [8]), 0.004 mg/kg.

With `Cc1nc2sccn2c(=O)c1CCN1CCC(c2noc3cc(F)ccc23)CC1` [Compound 2, 6-[2-[4-(6-fluoro-1,2-benzisoxazol-3-yl)-1-piperidinyl]ethyl]-7-methyl-5H-thiazolo[3,2-a]pyrimidin-5-one], the ED50 turned out to be 0.02 mg/kg in test [1] (setting [5]); 0.005 mg/kg in test [2] (setting [6]); 0.31 mg/kg in test [3]; 0.004 mg/kg in test [4] (setting [7]); 0.008 mg/kg in test [4] (setting [8]); 0.16 mg/kg in test [4] (duration 16 h, apomorphine 0.31 mg/kg s.c., dose protecting 50% from emesis).

For `Cc1nc2scc(C)n2c(=O)c1CCN1CCC(c2noc3cc(F)ccc23)CC1` [Compound 13, 6-[2-[4-(6-fluoro-1,2-benzisoxazol-3-yl)-1-piperidinyl]ethyl]-3,7-dimethyl-5H-thiazolo[3,2-a]pyrimidin-5-one], the ED50 in test [1] (setting [5]) worked out at 0.02 mg/kg; in test [2] (setting [6]) it was 0.02 mg/kg; in test [3], 0.08 mg/kg; in test [4] (setting [7]), 0.015 mg/kg; in test [4] (setting [8]), 0.06 mg/kg.

In the case of `Cc1nc2ccccn2c(=O)c1CCN1CCC(c2noc3cc(F)ccc23)CC1` [Compound 11, 3-[2-[4-(6-fluoro-1,2-benzisoxazol-3-yl)-1-piperidinyl]ethyl]-2-methyl-4H-pyrido[1,2-a]pyrimidin-4-one], the ED50 in test [1] (setting [5]) was 0.02 mg/kg; in test [2] (setting [6]) it was 0.01 mg/kg; in test [3] it was 0.16 mg/kg; in test [4] (setting [7]) it was 0.015 mg/kg; in test [4] (setting [8]), 0.03 mg/kg.

Regarding `Cc1nc2n(c(=O)c1CCN1CCC(c3noc4cc(F)ccc34)CC1)CCCC2` [Compound 1, 3-[2-[4-(6-fluoro-1,2-benzisoxazol-3-yl)-1-piperidinyl]ethyl]-6,7,8,9-tetrahydro-2-methyl-4H-pyrido[1,2-a]pyrimidin-4-one], the ED50 in test [1] turned out to be 0.08 mg/kg; in test [2], 0.08 mg/kg; in test [3] it was 0.16 mg/kg; in test [4] (1 h), 0.008 mg/kg; in test [4] (2 h), 0.005 mg/kg; in test [4] (4 h) it was 0.015 mg/kg. Further, the ED50 was 0.018 mg/kg in test [4] (8 h) and 0.02 mg/kg in test [4] (16 h).

Consider `Cc1nc2n(c(=O)c1CCN1CCC(c3noc4cc(F)ccc34)CC1)CCCS2` [Compound 15, 7-[2-[4-(6-fluoro-1,2-benzisoxazol-3-yl)-1-piperidinyl]ethyl]-3,4-dihydro-8-methyl-2H,6H-pyrimido[2,1-b][1,3]thiazin-6-one], for which the ED50 in test [1] (setting [5]) turned out to be 0.08 mg/kg; in test [2] (setting [6]), 0.01 mg/kg; in test [3] it was 0.31 mg/kg; in test [4] (setting [7]) it was 0.015 mg/kg; in test [4] (setting [8]), 0.06 mg/kg.
